Experimental data reported in US9656996B2, “Fused heterocyclic compound, preparation method therefor, pharmaceutical composition, and uses thereof” (SHANGHAI YINGLI PHARMACEUTICAL CO., LTD., priority 2013, dated 2017).
pIC50: −log10 of the molar value.

Tests used:
[1] = target: PI3Kα (Homo sapiens (Human), UniProt P42336); assay: PI3Kα enzymatic inhibitory activity IC50 assay; assay type: biochemical; settings: selectivity ratio
Protocol: (§1) 1. Buffer preparation: 50 mM HEPES, pH 7.5, 3 mM MgCl2, 1 mM EGTA, 100 mM NaCl, 0.03% CHAPS.
(§2) 2. The compound was formulated in 100% DMSO in a concentration gradient, and deposited to a 384-well plate with a final DMSO concentration of 1%.
(§3) 3. PI3Kα, PI3Kδ, PI3Kβ and PI3Kγ enzymes (purchased from EMD Millipore) were diluted to the optimal concentration with the following buffer: 50 mM HEPES, pH 7.5, 3 mM MgCl2, 1 mM EGTA, 100 mM NaCl, 0.03% CHAPS, 2 mM DTT, transferred to a 384-well plate and incubated with the compound for a certain time.
(§4) 4. The substrate was diluted to an optimal concentration with the following buffer: 50 mM HEPES, pH 7.5, 3 mM MgCl2, 1 mM EGTA, 100 mM NaCl, 0.03% CHAPS, 2 mM DTT, 50 μM PIP2, 25 μM ATP and added to the 384-well plate to initiate the reaction. PI3Kα, PI3Kβ and PI3Kγ were allowed to react for 1 h at room temperature, and PI3Kδ reacted for 2 hours at room temperature. Another 10 μL ADP-Glo Detection Reagent also needed to be added for PI3Kβ and PI3Kγ, and then equilibrated at room temperature for 30 minutes.
(§5) 5. Luminescence was read by using Flexstation, and the inhibition rate was calculated as the average value of two tests.

[2] = target: PI3Kδ (Homo sapiens (Human), UniProt O00329); assay: PI3Kδ enzymatic inhibitory activity IC50 assay; assay type: biochemical; settings: luminescence readout, 25 μM ATP, 50 μM PIP2, 2 hours at room temperature
Chain of PI3Kδ (O00329 whole entry, species assumed): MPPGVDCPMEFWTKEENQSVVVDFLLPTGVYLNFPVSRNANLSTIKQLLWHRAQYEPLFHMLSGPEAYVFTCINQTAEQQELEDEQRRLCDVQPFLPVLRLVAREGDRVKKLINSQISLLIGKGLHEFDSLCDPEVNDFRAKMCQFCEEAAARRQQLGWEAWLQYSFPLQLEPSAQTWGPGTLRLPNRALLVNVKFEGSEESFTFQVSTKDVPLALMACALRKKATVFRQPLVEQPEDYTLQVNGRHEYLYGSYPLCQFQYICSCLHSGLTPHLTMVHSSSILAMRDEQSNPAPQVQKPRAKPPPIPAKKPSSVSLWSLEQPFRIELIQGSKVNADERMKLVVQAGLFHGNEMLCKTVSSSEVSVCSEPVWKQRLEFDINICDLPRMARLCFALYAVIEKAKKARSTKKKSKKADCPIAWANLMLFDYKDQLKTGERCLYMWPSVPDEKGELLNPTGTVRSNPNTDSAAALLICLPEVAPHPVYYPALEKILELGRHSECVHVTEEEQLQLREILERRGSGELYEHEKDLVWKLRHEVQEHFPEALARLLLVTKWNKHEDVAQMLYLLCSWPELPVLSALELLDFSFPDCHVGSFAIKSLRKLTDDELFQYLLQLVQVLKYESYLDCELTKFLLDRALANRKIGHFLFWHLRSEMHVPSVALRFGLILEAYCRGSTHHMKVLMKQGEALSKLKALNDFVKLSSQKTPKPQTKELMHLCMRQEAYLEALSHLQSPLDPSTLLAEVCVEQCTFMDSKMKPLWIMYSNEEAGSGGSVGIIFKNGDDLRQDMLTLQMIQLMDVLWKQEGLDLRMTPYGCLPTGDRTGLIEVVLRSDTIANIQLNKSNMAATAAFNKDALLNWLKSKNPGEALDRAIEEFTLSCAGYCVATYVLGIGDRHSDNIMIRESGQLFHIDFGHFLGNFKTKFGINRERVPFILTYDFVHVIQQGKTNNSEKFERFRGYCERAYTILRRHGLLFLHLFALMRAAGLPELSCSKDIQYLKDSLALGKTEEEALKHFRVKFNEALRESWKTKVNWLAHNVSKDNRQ
Chain of PI3Kδ (P27986 whole entry partner, species assumed): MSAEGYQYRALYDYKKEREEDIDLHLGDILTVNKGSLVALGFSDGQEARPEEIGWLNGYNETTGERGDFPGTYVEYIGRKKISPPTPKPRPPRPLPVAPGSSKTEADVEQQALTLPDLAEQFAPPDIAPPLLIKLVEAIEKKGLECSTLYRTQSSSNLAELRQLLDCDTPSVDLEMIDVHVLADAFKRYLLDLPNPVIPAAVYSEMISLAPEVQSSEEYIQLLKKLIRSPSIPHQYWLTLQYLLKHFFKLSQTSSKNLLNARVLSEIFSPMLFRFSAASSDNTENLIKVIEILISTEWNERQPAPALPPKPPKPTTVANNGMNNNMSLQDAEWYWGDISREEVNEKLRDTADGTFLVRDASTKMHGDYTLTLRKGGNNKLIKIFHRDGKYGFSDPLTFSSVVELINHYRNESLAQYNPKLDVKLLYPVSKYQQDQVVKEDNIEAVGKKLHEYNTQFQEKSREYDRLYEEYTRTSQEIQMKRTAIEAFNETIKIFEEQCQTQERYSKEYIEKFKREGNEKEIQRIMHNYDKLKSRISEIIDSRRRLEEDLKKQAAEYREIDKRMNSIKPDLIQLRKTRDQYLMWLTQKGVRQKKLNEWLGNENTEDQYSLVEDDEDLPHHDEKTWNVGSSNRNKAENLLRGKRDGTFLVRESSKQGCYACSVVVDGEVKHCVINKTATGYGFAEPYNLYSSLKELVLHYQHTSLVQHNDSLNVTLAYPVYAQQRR
Protocol: as §1, §2, §3, §4, §5

[3] = test system: Raji cell TNF-α generation; assay: Inhibition of human Raji cell TNF-α generation induced by human IgM (ELISA); assay type: cell-based; settings: Raji cells, IgM stimulation, 24 hours
Protocol: 1. Raji cell line (human Burkitt's lymphoma origin) (ATCC, Cat#CCL-86) was used.
2. Raji cells were applied onto the 96-well plate with 1×10^5/well.
3. The compounds to be screened were diluted to the corresponding test concentration, and added to the cell culture system 30 minutes prior to IgM stimulation.
4. 10 µg/ml IgM monoclonal antibody (JACKSON, Cat#109-006-129) was added to the cell culture system in order to stimulate the cells generating TNF-α.
5. After 24 hours, the amount of TNF-α produced by the cell line was determined by ELISA.
6. The inhibition rates at each concentration of the compound were calculated and plotted to calculate 50% inhibition rate (IC50), and the specific results were shown in table 3.

[4] = target: PI3Kγ (Homo sapiens (Human), UniProt P48736); assay: PI3Kγ enzymatic inhibitory activity IC50 assay; assay type: biochemical; settings: selectivity ratio
Chain of PI3Kγ (P48736 whole entry, species assumed): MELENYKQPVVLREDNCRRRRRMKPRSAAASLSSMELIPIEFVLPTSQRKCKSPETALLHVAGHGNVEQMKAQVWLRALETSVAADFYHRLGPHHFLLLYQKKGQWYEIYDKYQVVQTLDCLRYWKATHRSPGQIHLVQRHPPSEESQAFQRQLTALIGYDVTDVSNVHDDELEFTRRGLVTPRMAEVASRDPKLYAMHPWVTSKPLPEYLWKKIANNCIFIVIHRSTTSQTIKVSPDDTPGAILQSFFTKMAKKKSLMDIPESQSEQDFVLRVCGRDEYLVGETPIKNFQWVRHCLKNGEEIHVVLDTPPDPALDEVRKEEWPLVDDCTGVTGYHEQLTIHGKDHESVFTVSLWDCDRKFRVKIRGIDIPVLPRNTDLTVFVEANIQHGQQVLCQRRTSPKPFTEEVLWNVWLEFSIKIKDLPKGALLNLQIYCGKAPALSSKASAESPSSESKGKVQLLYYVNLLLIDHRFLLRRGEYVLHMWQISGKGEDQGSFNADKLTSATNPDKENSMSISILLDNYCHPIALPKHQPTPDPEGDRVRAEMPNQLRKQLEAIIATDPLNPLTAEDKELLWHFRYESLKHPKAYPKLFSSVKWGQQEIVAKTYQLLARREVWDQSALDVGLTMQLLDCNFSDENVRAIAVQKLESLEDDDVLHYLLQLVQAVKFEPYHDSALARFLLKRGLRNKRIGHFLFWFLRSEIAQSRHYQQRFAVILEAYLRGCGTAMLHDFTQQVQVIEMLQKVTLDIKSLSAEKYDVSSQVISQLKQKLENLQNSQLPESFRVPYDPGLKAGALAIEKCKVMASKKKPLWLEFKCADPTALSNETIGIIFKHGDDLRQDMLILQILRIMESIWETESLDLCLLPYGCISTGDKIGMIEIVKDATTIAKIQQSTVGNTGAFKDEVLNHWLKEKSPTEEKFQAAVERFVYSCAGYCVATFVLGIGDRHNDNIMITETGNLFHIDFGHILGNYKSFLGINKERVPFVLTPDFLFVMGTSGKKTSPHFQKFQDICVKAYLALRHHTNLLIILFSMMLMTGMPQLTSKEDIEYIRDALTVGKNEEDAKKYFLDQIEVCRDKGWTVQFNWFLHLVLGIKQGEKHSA
Protocol: as §1, §2, §3, §4, §5

[5] = target: PI3Kβ (Homo sapiens (Human), UniProt P42338); assay: PI3Kβ enzymatic inhibitory activity IC50 assay; assay type: biochemical; settings: selectivity ratio
Chain of PI3Kβ (P42338 whole entry, species assumed): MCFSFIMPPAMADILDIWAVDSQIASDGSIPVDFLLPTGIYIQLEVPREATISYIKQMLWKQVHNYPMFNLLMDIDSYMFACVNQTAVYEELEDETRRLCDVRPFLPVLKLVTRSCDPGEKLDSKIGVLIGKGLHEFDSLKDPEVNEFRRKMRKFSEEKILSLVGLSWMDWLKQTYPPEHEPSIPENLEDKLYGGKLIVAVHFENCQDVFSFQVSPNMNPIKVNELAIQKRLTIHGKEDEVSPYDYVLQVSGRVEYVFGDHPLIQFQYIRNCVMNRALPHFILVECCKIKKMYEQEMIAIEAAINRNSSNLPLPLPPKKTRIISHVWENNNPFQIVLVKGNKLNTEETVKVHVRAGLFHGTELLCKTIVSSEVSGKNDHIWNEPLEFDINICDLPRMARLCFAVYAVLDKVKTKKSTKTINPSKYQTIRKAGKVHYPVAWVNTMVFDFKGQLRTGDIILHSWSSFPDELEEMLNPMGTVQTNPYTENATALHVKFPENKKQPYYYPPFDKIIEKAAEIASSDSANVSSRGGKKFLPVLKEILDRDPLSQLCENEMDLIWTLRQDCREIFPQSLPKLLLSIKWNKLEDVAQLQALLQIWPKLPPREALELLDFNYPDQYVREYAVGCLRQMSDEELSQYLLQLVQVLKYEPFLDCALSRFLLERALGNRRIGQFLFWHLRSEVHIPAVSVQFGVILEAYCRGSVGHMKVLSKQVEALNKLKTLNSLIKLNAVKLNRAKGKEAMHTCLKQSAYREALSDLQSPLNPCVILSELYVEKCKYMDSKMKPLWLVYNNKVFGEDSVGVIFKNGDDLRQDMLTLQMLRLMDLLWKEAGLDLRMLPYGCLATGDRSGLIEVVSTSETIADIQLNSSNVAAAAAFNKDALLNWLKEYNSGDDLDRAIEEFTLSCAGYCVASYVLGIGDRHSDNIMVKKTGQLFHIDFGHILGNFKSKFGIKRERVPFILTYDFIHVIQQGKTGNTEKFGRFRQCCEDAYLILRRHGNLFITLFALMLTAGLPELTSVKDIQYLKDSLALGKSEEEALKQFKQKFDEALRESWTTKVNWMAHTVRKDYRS
Chain of PI3Kβ (P27986 whole entry partner, species assumed): as the sequence (P27986 whole entry partner, species assumed) above
Protocol: as §1, §2, §3, §4, §5

Chain of PI3Kα (P42336 whole entry, species assumed): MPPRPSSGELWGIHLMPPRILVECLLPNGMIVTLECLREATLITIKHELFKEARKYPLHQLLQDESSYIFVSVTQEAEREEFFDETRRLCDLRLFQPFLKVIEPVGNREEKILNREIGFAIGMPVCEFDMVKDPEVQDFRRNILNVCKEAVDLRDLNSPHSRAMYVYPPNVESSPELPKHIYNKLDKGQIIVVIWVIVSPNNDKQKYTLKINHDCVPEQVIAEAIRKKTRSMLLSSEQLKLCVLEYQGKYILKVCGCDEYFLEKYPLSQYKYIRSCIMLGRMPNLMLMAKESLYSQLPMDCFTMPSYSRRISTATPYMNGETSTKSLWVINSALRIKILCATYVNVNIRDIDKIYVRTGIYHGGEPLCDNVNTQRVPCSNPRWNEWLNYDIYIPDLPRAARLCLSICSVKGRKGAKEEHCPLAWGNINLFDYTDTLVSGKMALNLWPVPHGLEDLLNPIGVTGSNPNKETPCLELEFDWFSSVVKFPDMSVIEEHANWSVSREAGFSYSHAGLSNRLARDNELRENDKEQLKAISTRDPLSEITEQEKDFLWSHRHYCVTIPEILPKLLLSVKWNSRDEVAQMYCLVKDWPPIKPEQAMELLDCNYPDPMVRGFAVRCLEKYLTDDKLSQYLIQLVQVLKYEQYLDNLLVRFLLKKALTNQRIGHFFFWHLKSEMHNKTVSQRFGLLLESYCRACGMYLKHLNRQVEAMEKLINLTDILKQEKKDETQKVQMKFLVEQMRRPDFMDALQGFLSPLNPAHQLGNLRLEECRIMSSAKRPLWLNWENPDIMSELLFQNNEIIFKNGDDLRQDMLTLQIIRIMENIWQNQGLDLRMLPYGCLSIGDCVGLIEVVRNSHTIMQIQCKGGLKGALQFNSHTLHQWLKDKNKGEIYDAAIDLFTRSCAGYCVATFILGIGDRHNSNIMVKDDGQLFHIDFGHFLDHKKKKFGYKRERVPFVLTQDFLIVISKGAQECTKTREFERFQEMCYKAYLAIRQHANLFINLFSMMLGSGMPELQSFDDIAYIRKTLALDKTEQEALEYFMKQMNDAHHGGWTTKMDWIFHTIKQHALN
Chain of PI3Kα (P27986 whole entry partner, species assumed): as the sequence (P27986 whole entry partner, species assumed) above

| SMILES | α/δ (ratio of IC50 values against PI3Kα to PI3Kδ) [1] | pIC50 [2] | pIC50 [3] | γ/δ (ratio of IC50 values against PI3Kγ to PI3Kδ) [4] | β/δ (ratio of IC50 values against PI3Kβ to PI3Kδ) [5] |
| --- | --- | --- | --- | --- | --- |
| COc1ncc(-c2nc(N3CCOCC3)nc3c(CN4CCC(OC)CC4)cccc23)cc1NS(C)(=O)=O [Compound 2] | 368 | 7.77 | 7.03 | – | – |
| COc1ncc(-c2nc(N3CCOCC3)nc3c(CN4CCC(N5CCCCC5)CC4)cccc23)cc1NS(C)(=O)=O [Compound 3] | 119 | 7.51 | 7.50 | – | – |
| C[C@@H](O)C(=O)N1CCN(Cc2cccc3c(-c4cnc(N)nc4)nc(N4CCOCC4)nc23)CC1 [Compound 4] | 2 | 7.35 | – | – | – |
| CS(=O)(=O)N1CCN(Cc2cccc3c(-c4cnc(N)nc4)nc(N4CCOCC4)nc23)CC1 [Compound 5] | 1 | 7.23 | – | – | – |
| COc1ncc(-c2nc(N3CCOCC3)nc3c(CN4CCC(N5CCCCC5)CC4)cc(F)cc23)cc1NS(C)(=O)=O [Compound 7] | 130 | 7.51 | 7.46 | >322 | 166 |
| COc1ncc(-c2nc(N3CCOCC3)nc3c(CN4CCC(N5CCCC5)CC4)cc(F)cc23)cc1NS(C)(=O)=O [Compound 8] | 292 | 8.01 | 7.55 | – | – |
| COc1ncc(-c2nc(N3CCOCC3)nc3c(CN4CCC(N5CCC5)CC4)cc(F)cc23)cc1NS(C)(=O)=O [Compound 9] | 233 | 7.72 | – | – | – |
| COc1ncc(-c2nc(N3CCOCC3)nc3c(CN4CCC(C(C)(C)O)CC4)cc(F)cc23)cc1NS(C)(=O)=O [Compound 10] | 320 | 8.19 | 7.18 | >1000 | 31 |
| CC(C)(O)C1CCN(Cc2cnc3c(-c4cncc(NS(C)(=O)=O)c4)nc(N4CCOCC4)cn23)CC1 [Compound 13] | >42 | 6.62 | – | – | – |
| CN1CCN(Cc2cnc3c(-c4cncc(NS(C)(=O)=O)c4)nc(N4CCOCC4)cn23)CC1 [Compound 14] | >9 | 5.99 | – | – | – |
| COc1ncc(-c2nc(N3CCOCC3)c3sc(CN4CCC(N(C)C(C)C)CC4)c(C)c3n2)cc1NS(C)(=O)=O [Compound 16] | 42 | 7.82 | 7.70 | >650 | 341 |
| COc1ncc(-c2nc(N3CCOCC3)c3nc(OC4CN(C5CCCCC5)C4)n(C)c3n2)cc1NS(C)(=O)=O [Compound 19] | 88 | 8.30 | – | – | – |
| Nc1ncc(-c2nc(N3CCOCC3)nc3c(CN4CCN(C(=O)CO)CC4)cc(F)cc23)cn1 [Compound 22] | 2 | 7.51 | – | – | – |
| COc1ncc(-c2nc(N3CCOCC3)nc3c(CN4CC[C@@H](N5CCCCC5=O)C4)cc(F)cc23)cc1NS(C)(=O)=O [Compound 24] | 45 | 7.68 | – | – | – |
| COc1ncc(-c2nc(N3CCOCC3)nc3c(CN4CC(C(C)(C)O)C4)cc(F)cc23)cc1NS(C)(=O)=O [Compound 27] | 83 | 7.62 | 6.64 | – | – |
| COc1ncc(-c2nc(N3CCOCC3)nc3c(OC4CCC(C(C)(C)O)CC4)cc(F)cc23)cc1NS(C)(=O)=O (stereo not shown) [Compound 28] | 63 | 7.11 | – | >129 | >129 |
| COc1ncc(-c2nc(N3CCOCC3)nc3c(CN4CCN(C)C(=O)C4)cc(F)cc23)cc1NS(C)(=O)=O [Compound 29] | 22 | 7.72 | – | – | – |
| COc1ncc(-c2nc(N3CCOCC3)nc3c(OC4CCOCC4)cc(F)cc23)cc1NS(C)(=O)=O [Compound 32] | 23 | 7.42 | – | – | – |
| COc1ncc(-c2nc(N3CCOCC3)nc3c(OCCN4CCCCC4)cc(F)cc23)cc1NS(C)(=O)=O [Compound 33] | 113 | 7.33 | 6.59 | – | – |
| COc1ncc(-c2nc(N3CCOCC3)nc3c(OC4CN(C5CCOCC5)C4)cc(F)cc23)cc1NS(C)(=O)=O [Compound 38] | 28 | 7.80 | 7.49 | – | – |

The remaining compounds from weak to strong by pIC50 [2], led by results:

| α/δ (ratio of IC50 values against PI3Kα to PI3Kδ) [1] | pIC50 [2] | pIC50 [3] | γ/δ (ratio of IC50 values against PI3Kγ to PI3Kδ) [4] | β/δ (ratio of IC50 values against PI3Kβ to PI3Kδ) [5] | SMILES |
| --- | --- | --- | --- | --- | --- |
| 2.3 | 6.22 | – | – | – | CS(=O)(=O)N1CCN(Cc2cnn3c(-c4cccc5[nH]ncc45)cc(N4CCOCC4)nc23)CC1 [Compound 11] |
| 2.4 | 6.34 | – | – | – | CS(=O)(=O)N1CCN(Cc2cccc3c(-c4cccc5[nH]ncc45)nc(N4CCOCC4)nc23)CC1 [Compound 6] |
| 23 | 6.46 | – | >29 | >29 | COc1ncc(-c2nc(N3CCOCC3)c3cc(CN4CCC(N5CCCCC5)CC4)ccc3n2)cc1NS(C)(=O)=O [Compound 15] |
| 42 | 6.93 | – | >85 | >85 | COc1ncc(-c2nc(N3CCOCC3)nc3c(OC4CC(C(C)(C)O)C4)cc(F)cc23)cc1NS(C)(=O)=O (stereo not shown) [Compound 37] |
| 32 | 7.06 | – | – | – | COc1ncc(-c2nc(N3CCOCC3)nc3c(CN4CCC[C@H]4C(C)(C)O)cc(F)cc23)cc1NS(C)(=O)=O [Compound 26] |
| 15 | 7.39 | 6.45 | – | – | COc1ncc(-c2nc(N3CCOCC3)nc3c(O[C@@H]4CCOC4)cc(F)cc23)cc1NS(C)(=O)=O [Compound 30] |
| 24 | 7.57 | – | – | – | COc1ncc(-c2nc(N3CCOCC3)nc3c(OCC4CCOCC4)cc(F)cc23)cc1NS(C)(=O)=O [Compound 31] |
| 58 | 7.66 | 6.97 | – | – | COc1ncc(-c2nc(N3CCOCC3)nc3c(OC4CN(C(=O)C(C)C)C4)cc(F)cc23)cc1NS(C)(=O)=O [Compound 39] |
| 227 | 7.70 | 6.98 | >500 | 322 | COc1ncc(-c2nc(N3CCOCC3)nc3c(OC4CCC(N5CCCCC5)CC4)cc(F)cc23)cc1NS(C)(=O)=O (stereo not shown) [Compound 35] |
| 202 | 7.74 | 7.18 | >549 | 360 | COc1ncc(-c2nc(N3CCOCC3)nc3c(OC4CCC(N5CCCCC5)CC4)cc(F)cc23)cc1NS(C)(=O)=O (stereo not shown) [Compound 34] |
| 79 | 7.80 | 7.05 | >625 | 40 | COc1ncc(-c2nc(N3CCOCC3)nc3c(CN4CCC(N5CCCCC5=O)CC4)cc(F)cc23)cc1NS(C)(=O)=O [Compound 23] |
| 91 | 7.82 | – | – | – | COc1ncc(-c2nc(N3CCOCC3)c3nc(OC4CCC(N5CCCC5)CC4)n(C)c3n2)cc1NS(C)(=O)=O (stereo not shown) [Compound 21] |
| 341 | 8.12 | 7.54 | – | – | COc1ncc(-c2nc(N3CCOCC3)nc3c(CN4CCC(C(C)(C)O)CC4)cccc23)cc1NS(C)(=O)=O [Compound 1] |
| 15 | 8.34 | – | – | – | COc1ncc(-c2nc(N3CCOCC3)c3nc(OC4CCOCC4)n(C)c3n2)cc1NS(C)(=O)=O [Compound 20] |
| 11 | 8.38 | 7.82 | – | – | COc1ncc(-c2nc(N3CCOCC3)c3nc(OC4CCN(C5COC5)CC4)n(C)c3n2)cc1NS(C)(=O)=O [Compound 18] |
| 38 | 8.47 | – | – | – | COc1ncc(-c2nc(N3CCOCC3)c3sc(CN4CCC(C(C)(C)O)CC4)c(C)c3n2)cc1NS(C)(=O)=O [Compound 17] |
